Reference: ChEMBL document CHEMBL1136907, “Structural insight into human CK2alpha in complex with the potent inhibitor ellagic acid” (Bioorg Med Chem Lett, 2009)

Key:
[1] = Inhibition of PKA
[2] = Inhibition of rat liver CK2 by Lineweaver-Burke double reciprocal plot analysis
[3] = Inhibition of rat liver CK2 catalytic activity
[4] = Inhibition of PKC

O=c1oc2c(O)c(O)cc3c(=O)oc4c(O)c(O)cc1c4c23 [ELLAGIC ACID]
IC50 [1]: 2000 nM
Ki [2]: 20 nM
IC50 [3]: 40 nM
IC50 [4]: 8000 nM
